US7173063B1, “Topoisomerase poisons for the treatment of proliferative disorders” (Fred Hutchinson Cancer Research Center, priority 2000, dated 2007)

Target: T1, Topo II (Saccharomyces cerevisiae, UniProt P06786)
T1 construct: Strains are wild-type (wt) or constitutively overexpressing Topo II (TOP2oe); endogenous in cells; host or cells: S. cerevisiae A364a background, chromosomal TOP2 with its promoter replaced by the GPD promoter (TOP2oe)
T1 sequence (P06786 1-1428): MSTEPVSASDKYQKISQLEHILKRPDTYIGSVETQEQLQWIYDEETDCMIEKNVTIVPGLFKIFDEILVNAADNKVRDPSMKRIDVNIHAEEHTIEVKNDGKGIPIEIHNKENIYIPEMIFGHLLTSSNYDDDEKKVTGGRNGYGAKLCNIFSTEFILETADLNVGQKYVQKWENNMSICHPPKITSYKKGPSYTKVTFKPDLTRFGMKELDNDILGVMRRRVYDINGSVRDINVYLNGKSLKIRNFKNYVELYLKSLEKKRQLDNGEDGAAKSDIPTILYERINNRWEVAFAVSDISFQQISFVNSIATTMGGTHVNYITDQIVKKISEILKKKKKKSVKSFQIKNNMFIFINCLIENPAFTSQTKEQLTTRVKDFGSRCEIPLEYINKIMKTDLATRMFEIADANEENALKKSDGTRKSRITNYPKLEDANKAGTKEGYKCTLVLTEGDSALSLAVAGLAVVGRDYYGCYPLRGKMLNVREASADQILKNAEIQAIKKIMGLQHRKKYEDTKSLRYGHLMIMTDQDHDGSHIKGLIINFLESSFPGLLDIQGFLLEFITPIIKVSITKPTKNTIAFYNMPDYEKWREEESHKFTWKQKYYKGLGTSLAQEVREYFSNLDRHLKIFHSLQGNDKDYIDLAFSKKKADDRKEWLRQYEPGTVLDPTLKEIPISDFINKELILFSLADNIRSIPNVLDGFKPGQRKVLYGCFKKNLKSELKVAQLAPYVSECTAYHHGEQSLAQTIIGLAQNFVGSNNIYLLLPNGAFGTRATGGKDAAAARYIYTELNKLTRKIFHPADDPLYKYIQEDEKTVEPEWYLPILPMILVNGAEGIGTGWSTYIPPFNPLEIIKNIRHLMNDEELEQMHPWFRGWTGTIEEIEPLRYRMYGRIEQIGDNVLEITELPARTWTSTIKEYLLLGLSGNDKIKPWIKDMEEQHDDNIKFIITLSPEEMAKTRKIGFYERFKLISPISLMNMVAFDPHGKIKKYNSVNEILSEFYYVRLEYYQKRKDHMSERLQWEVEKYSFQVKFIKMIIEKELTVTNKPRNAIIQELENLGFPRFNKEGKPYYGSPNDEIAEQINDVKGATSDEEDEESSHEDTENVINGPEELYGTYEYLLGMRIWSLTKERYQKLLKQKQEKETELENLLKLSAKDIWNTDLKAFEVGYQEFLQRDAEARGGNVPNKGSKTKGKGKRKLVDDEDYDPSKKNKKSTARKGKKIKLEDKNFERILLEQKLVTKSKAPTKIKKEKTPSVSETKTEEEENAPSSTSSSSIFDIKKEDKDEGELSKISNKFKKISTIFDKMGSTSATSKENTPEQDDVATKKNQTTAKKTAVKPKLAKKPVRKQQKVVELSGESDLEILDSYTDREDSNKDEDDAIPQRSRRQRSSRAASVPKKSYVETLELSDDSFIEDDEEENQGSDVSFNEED
Test: Yeast toxicity in strain overexpressing Topo II (TOP2oe)
Assay type: cell-based
Settings: TOP2oe vs wild-type strain
Source text: The strains are derived from the A364a genetic background, with the exception of BY4705, which is derived from the S288C background. Gene disruptions were generated by PCR fragment directed replacement (Baudin, et al., Nucleic Acids Research 21: 3329–30 (1993), Guldener, et al., Nucleic Acids Research 24: 2519–24 (1996)). Yeast overexpressing topoisomerase II was constructed by a PCR fragment directed promoter replacement of the topoisomerase II promoter with the yeast GPD promoter flanked upstream by the URA3 marker. All strains (except BY4705) bear the pleitropic drug sensitizing mutations erg6, pdr1, and pdr3 (Balzi, et al., Journal of Bioenergetics & Biomembranes 27: 71–6 (1995), Delaveau, et al, Molecular & General Genetics 244: 501–11 (1994), Gaber, et al., Molecular & Cellular Biology 9: 3447–56 (1989), Saunders, et al., Canadian Journal of Genetics & Cytology, 24: 493–503 (1982). Subik, et al, Current Genetics 10: 665–70 (1986)). The haploid yeast strain BY4705 (Brachmann, et al., Yeast 14: 115–32 (1998)) was used in the experiments described in FIG. 5. Plasmids expressing yeast or human topoisomerase I genes under the GAL promoter (Knab, et al., Journal of Biological Chemistry 268: 22322–30 (1993). Knab, et al., Journal of Biological Chemistry 270: 6141–8 (1995)) were transformed into BY4705 using standard procedures.
Yeast toxicity assays were performed essentially as follows: Exponentially growing cultures of the appropriate strains were diluted in synthetic complete media to a concentration of 7.4×10^4 cells/mL, and aliquots (135 μL) were transferred to each well of clear flat-bottomed 96 well plates. Compounds were added in duplicate or triplicate as 15 μL of the appropriate dilution in 5% DMSO. A 15 μL portion of 5% DMSO was added to control wells. Assay plates were incubated at 30° C. for approximately seven generations growth in solvent control wells (as monitored by OD660, typically 21–24 hours), then the OD660 of the cultures was measured in a microplate reader (Bio-Tek). […]

Question: How did the “effect of overexpression of Topo II on toxicity” value (from here on “effect”) turn out when O=c1c(Cl)c(Cl)cnn1CCCl [compound IIa] was run?
Answer: Neither compound shows a large increase in toxicity

Question: For O=C(CCl)Nc1ccc(C(=O)N/N=C/c2ccc(Cl)cc2)cc1 [compound Ia], which “effect” value is on record?
Answer: Neither compound shows a large increase in toxicity

Question: Which “effect” value does the source give for CC(=O)[C@]1(O)Cc2c(O)c3c(c(O)c2[C@@H](O[C@H]2C[C@H](N)[C@H](O)[C@H](C)O2)C1)C(=O)c1ccccc1C3=O [idarubicin, reference compound] here?
Answer: large increase
